According to ChEMBL document CHEMBL1125922, “Peptide leukotrienes: current status of research” (J Med Chem, 1991):

Tests used:
[1] = target: T1, Cysteinyl leukotriene receptor 1 (Cavia porcellus, UniProt Q2NNR5); assay: Compound was evaluated for its ability to displace [3H]LTD4 from Cysteinyl leukotriene D4 receptor in guinea pig lung membranes; type: cell membranes, Membrane
T1 sequence (Q2NNR5 whole entry): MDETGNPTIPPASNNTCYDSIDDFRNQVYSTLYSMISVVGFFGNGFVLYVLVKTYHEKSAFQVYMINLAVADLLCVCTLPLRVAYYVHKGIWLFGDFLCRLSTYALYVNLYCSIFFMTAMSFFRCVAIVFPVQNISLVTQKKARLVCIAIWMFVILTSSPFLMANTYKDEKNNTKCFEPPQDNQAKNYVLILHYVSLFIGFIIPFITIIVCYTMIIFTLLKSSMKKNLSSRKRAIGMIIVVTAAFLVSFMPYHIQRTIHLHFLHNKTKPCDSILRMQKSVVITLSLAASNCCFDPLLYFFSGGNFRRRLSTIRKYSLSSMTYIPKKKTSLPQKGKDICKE

Cavia porcellus [2] = organism: Cavia porcellus; assay: (§1) Antagonistic activity against LTD4 induced contraction in guinea pig trachea; type: functional
Cavia porcellus [3] = organism: Cavia porcellus; assay: as §1; type: functional, organism-based; settings: for Kb: read-out: pA2 (converted)
Homo sapiens = organism: Homo sapiens; assay: Antagonistic activity against LTD4 induced contraction in human bronchus; type: functional
[4] = target: T1, Cysteinyl leukotriene receptor 1; assay: Compound was evaluated for its ability to displace [3H]LTD4 from LTD4 receptor in guinea pig lung membranes; type: cell membranes, Membrane
Cavia porcellus [5] = organism: Cavia porcellus; assay: Antagonistic activity against LTD4 induced contraction in guinea pig lung parenchymal strips; type: functional; settings: Lung parenchyma, read-out: pA2 (converted)
Cavia porcellus [6] = organism: Cavia porcellus; assay: Antagonistic activity against LTD4 induced contraction in guinea pig ileum; type: functional

Compound | pKB (Cavia porcellus [2]) | Kb (Cavia porcellus [3]) [nM] | further results
CCCCC/C=C/C\C=C/C=C/C=C/[C@@H](Sc1ccc2c(=O)cc(C(=O)O)oc2c1)[C@H](O)CCCC(=O)O |  |  | IC50 [1]: 100 nM
O=C(Nc1cccc2c(=O)cc(-c3nnn[nH]3)oc12)c1ccc(OCCCCc2ccccc2)cc1 | 7.5 |  | 
O=C(O)CCS[C@@H](CC(=O)O)c1ccccc1CCCCCCCCc1ccccc1 | 7.6 |  | Ki [1]: 60 nM
CCCCCCCCC/C=C\C=C\[C@@H](SCCC(=O)O)[C@@H](O)c1cccc(-c2nnn[nH]2)c1 |  | 7.94 | 
CCC(CC)(CC(=O)Nc1cccc(/C=C/c2nc(C3CCC3)cs2)c1)C(=O)O |  |  | pKB (Homo sapiens): 9.3
CCCc1c(OCCCOc2cc(NC(=O)c3nn[nH]n3)c(C)cc2Cl)ccc(C(C)=O)c1O [CGP-35949] |  | 39.8 | 
CCCc1c(OCC(O)COc2ccc3c(=O)cc(C(=O)O)oc3c2CCC)ccc(C(C)=O)c1O (stereo unspecified) [FPL-55712] |  | 200 | 
COc1cc(C(=O)NS(=O)(=O)c2ccccc2)ccc1Cn1ncc2ccc(NC(=O)OC3CCCC3)cc21 [ICI-198615] |  | 0.0794 | Ki [4]: 0.3 nM
CCCc1c(OCCCS(=O)(=O)c2ccc(C(=O)CCC(=O)O)cc2)ccc(C(C)=O)c1O [L-648051] |  | 50.1 | 
CCCc1c(OCCCSc2ccc([C@@H](O)[C@H](C)CC(=O)O)cc2)ccc(C(C)=O)c1O [L-649923] |  | 63.1 | Ki [4]: 400 nM
CCCc1c(COc2ccc(Cc3nnn[nH]3)cc2)ccc(C(C)=O)c1O [LY-163443] | 7.5 |  | 
CCCc1c(OCCCCc2nnn(CCCCc3nnn[nH]3)n2)ccc(C(C)=O)c1O [LY-203647] | 6.4 |  | 
CN(C)C(=O)CCSC(SCCC(=O)O)c1cccc(/C=C/c2ccc3ccc(Cl)cc3n2)c1 (stereo unspecified) [MK-571] | 9.3 |  | Ki [1]: 0.2 nM
O=C(O)CCS[C@H](c1ccccc1CCCCCCCCc1ccccc1)[C@@H](O)C(=O)O [POBILUKAST] |  | 2.51 | 
c1ccc(Cc2nn[nH]n2)c(COc2ccc(OCc3ccc4ccccc4n3)cc2)c1 [RG-12525] |  |  | Kb (Cavia porcellus [5]): 3.98 nM
O=S(=O)(Nc1cccc(OCc2ccc3ccccc3n2)c1)C(F)(F)F [RITOLUKAST] | 7.8 |  | 
CCCc1c(OCCCOc2ccc3c(c2CCC)OC(C)(CCC(=O)O)CC3=O)ccc(C(C)=O)c1O (stereo unspecified) [SC-39070] |  |  | pKB (Cavia porcellus [6]): 8.2
O=C(O)c1ccccc1Nc1cccc(OCc2ccc3ccccc3n2)c1 [SR-2640] | 8.7 |  | 
CCCc1c(OCCCCc2nnn[nH]2)ccc(C(C)=O)c1O [TOMELUKAST] | 6.9 |  | Ki [4]: […]
CCCc1c(OCCCSc2nnc(SCC(=O)O)s2)ccc(C(C)=O)c1O [YM-16638] |  |  | IC50 (Cavia porcellus [3]): 160 nM
COc1cc(C(=O)NS(=O)(=O)c2ccccc2C)ccc1Cc1cn(C)c2ccc(NC(=O)OC3CCCC3)cc12 [ZAFIRLUKAST] | 9.5 |  | 
